The text below walks through data of PMC8551122, “Characterization and Modeling of Thermostable GH50 Agarases from Microbulbifer elongatus PORT2” (Marine Biotechnology (New York, N.y.), 2021).

The target of this experiment is T1, AgaB50 (Microbulbifer elongatus, UniProt A0A516UX44).
T1 construct: full-length precursor 769 aa; 26 N-terminal residues (SPII lipoprotein signal peptide) deleted; N-terminal His6 tag; E. coli BL21 (DE3), pFO4; about 82 kDa
T1 sequence (A0A516UX44 1-743): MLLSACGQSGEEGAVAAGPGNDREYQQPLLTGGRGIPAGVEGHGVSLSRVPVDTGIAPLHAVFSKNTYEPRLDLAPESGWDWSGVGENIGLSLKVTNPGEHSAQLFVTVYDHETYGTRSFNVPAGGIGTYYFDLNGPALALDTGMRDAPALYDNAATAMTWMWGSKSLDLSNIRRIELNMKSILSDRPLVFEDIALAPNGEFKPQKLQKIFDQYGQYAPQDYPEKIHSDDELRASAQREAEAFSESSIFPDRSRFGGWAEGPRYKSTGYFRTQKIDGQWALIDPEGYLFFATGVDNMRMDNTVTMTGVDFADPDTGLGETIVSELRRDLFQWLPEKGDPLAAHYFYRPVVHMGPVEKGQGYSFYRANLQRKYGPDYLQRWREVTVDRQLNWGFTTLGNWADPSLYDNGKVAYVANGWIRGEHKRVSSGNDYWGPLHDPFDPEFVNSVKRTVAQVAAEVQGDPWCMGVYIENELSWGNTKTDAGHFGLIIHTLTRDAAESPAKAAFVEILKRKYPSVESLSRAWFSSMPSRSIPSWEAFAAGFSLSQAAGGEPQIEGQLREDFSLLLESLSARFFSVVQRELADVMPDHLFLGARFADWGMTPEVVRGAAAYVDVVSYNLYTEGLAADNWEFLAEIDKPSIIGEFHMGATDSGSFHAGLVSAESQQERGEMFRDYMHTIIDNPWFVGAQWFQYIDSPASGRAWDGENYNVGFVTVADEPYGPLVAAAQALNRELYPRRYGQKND
Description: HPLC-RID product analysis, end point. Format: biochemical. Particulars: […] in ultrapure water, […] °C, overnight.

With `OC[C@H]1O[C@@H](O[C@H]2[C@H]3OC[C@@H]2O[C@@H](O[C@H]2[C@@H](O)[C@@H](CO)O[C@@H](O[C@H]4[C@H]5OC[C@@H]4O[C@@H](O[C@H]4[C@@H](O)[C@@H](CO)O[C@@H](O[C@H]6[C@H]7OC[C@@H]6O[C@@H](O[C@H]6[C@@H](O)[C@@H](CO)OC(O)[C@@H]6O)[C@H]7O)[C@@H]4O)[C@H]5O)[C@@H]2O)[C@H]3O)[C@H](O)[C@@H](O[C@@H]2O[C@H]3CO[C@@H]([C@@H]2O)[C@@H]3O)[C@H]1O` (stereo partly shown) [NA8, neoagarooctaose], the “HPLC-RID product analysis, end point” value is “AgaB50 was able to convert larger NAOS such as NA8, NA6, and NA4”.
